Data on 14 compounds can be found in patent US4520026A, “Indolizine derivatives and use as cardiovascular agents” (S. A. Labaz N.V., priority 1982, dated 1985).

Data set [1] is described as follows: Acute toxicity by intragastric route to mice. It counts as in vivo. As to conditions: mouse, in vivo, po, oxalate acid form except those marked (hydrochloride). As to the method:
(§1) Acute toxicity tests were carried out on rats and mice. The following results were registered in comparison with butoprozine. The compounds of the invention were used in oxalate acid form except those marked (x) which were tested in hydrochloride form.

For a further data set, the system named is mice. Description: Acute toxicity by intragastric route to mice. The note with it: hydrochloride form (marked). It counts as in vivo. On the procedure:
as §1

Data set [2] in a line: Acute toxicity by intravenous route to rats. It counts as in vivo. The note with it: rat, in vivo, oxalate acid form except those marked (hydrochloride). As to the method: as §1
Data set [3] is described as follows: Acute toxicity by intravenous route to mice. As to conditions: mouse, in vivo, oxalate acid form except those marked (hydrochloride). On the procedure:
as §1

For another data set, the system named is rats. The data set can be described thus: Acute toxicity by intravenous route to rats. It counts as in vivo. The note with it: oxalate acid form except those marked (hydrochloride). On the procedure:
as §1

For data set [4], the system named is epinephrine-accelerated heart rate (anti-β effect). The data set can be described thus: Antiadrenergic effect: anti-β effect (reduction of epinephrine-accelerated heart rate). As to conditions: dog; for inhibition in vivo at 5 mg/kg: dose 5 mg/kg i.v.; for Anti-β effect / inhibition in vivo at 10 mg/kg: dose 10 mg/kg i.v. It counts as in vivo. In a few lines: (§2)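 Pentobarbital-anaesthetized, atropinized dogs given an epinephrine dose (5–10 μg/kg) raising arterial pressure about 100 mm Hg, then test compound i.v. Reduction of the pressor response (anti-α) and of the ~70-beat tachycardia (anti-β) scored: + <50%, ++ ≥50%, +++ subtotal.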

The nature of data set [5]: Blood level after oral dose in the dog. It counts as in vivo. As to conditions: same oral dose.
For the next data set, the system named is ventricular fibrillation. The data set can be described thus: Anti-arrhythmic properties, LAWSON test (chloroform-provoked arrhythmia), intragastric. It counts as in vivo. The note with it: Mus musculus, po, mice, read-out: AD50 (dose protecting 50% of the animals against ventricular fibrillation). On the procedure:
The arrhythmia was provoked by making the animals inhale chloroform to total asphyxia and by later observing the ventricular rhythm. The dose of compound protecting 50% of the animals against ventricular fibrillation i.e. the AD50 was then recorded.

The test system of data set [6] is epinephrine-increased blood-pressure (anti-α effect). Description: Antiadrenergic effect: anti-α effect (reduction of epinephrine-increased blood-pressure). It counts as in vivo. As to conditions: dog. An outline of the steps:
as §2

The next data set deals with dog. The data set can be described thus: Cardiac tolerance and general toxicity in long-term toxicity tests, oral, dog. The note with it: in vivo.
The test system of data set [7] is blood-flow to the myocardium. Description: Effect on blood-flow to the myocardium, anaesthetized dogs, intravenous. It counts as in vivo, dog. The note with it: anaesthetized dog. On the procedure:
It was undertaken on anaesthetized dogs which received the substance under study by intravenous route. The intensity of the maximum effect on blood-flow to the myocardium was expressed in percentage of the corresponding value before injection. The time required for the maximum effect to decrease by 50% represented the duration of the effect. This time was measured in minutes.

Data set [8] deals with consumption of oxygen by the myocardium. The data set can be described thus: Consumption of oxygen by the myocardium. As to conditions: in vivo. An excerpt: Furthermore, the indolizine derivatives present a β-antiadrenergic effect which is much more powerful than that of the derivatives of the aforesaid U.S. patent. At the minimum dose required to produce bradycardia, a reduction in arterial pressure, α-antiadrenergic and coronarodilatory effects to a significant degree, the β-antiadrenergic effect is, in fact, only slight in the case of the derivatives of the U.S. patent in question whereas it is much stronger with the indolizine derivatives of the invention. Moreover, the compounds of the invention reduce the consumption of oxygen by the myocardium calculated by multiplying the difference between the arterial and venous blood in oxygen by the coronary blood-flow. Thus, the compounds of the invention cause a considerable reduction in the arterio-venous difference which induces a decrease in the consumption of oxygen in spite of the increase of the coronary blood-flow.

Where [9] appears, read: Canis lupus familiaris, iv, dose 10 mg/kg i.v., read-out: Max. increase (blood-flow to the myocardium).

Each structure is given as a SMILES string.

For orientation: LD50 means the dose expected to kill half of the subjects tested. A higher LD50 goes with lower toxicity. As for `CCCCN(CCCC)CCCOc1ccc(C(=O)c2c(C)c(Br)c3ccccn23)cc1Br.Cl` [(*)Br/Br/H/CH3/n-C4H9/3, 1-Bromo-2-methyl-3-[4-(3-di-n-butylaminopropyl)-oxy-3-bromo-benzoyl]-indolizine hydrochloride], the values for the LD50 in data set [1], in [2] and in [3] were greater than 5000 mg/kg, 70 mg/kg and 50 mg/kg, respectively. In the data set with mice, this compound came in with an LD0 greater than 5000 mg/kg.
For the compound `CCCCc1cc2ccccn2c1C(=O)c1ccc(OCCCN(CCCC)CCCC)c(Cl)c1.Cl` [(*)H/Cl/H/n-C4H9/n-C4H9/3, 2-n-butyl-3-[4-(3-di-n-butylaminopropyl)-oxy-3-chloro-benzoyl]-indolizine hydrochloride], in the data set with rats, the LD0 is greater than 50 mg/kg. Further, the LD50 in data set [2] was greater than 50 mg/kg.
Usually inhibition in vivo stands for the share of the control response that was lost under treatment. Read a high inhibition in vivo as strong suppression. Turning to `CCCCN(CCCC)CCCOc1ccc(C(=O)c2c(C)c(Br)c3ccccn23)cc1Br` [Br/Br/H/CH3/n-C4H9/3, 1-Bromo-2-methyl-3-[4-(3-di-n-butylaminopropyl)-oxy-3-bromo-benzoyl]-indolizine], in [4] (Canis lupus familiaris, iv), the inhibition in vivo at 5 mg/kg is greater than 50%. Also, the Anti-β effect result in data set [4] is given as “+++”. Further, the “Blood level compared with butoprozine” value in [5] is recorded as “three times higher”. In the data set on ventricular fibrillation, the ED50 is 180 mg/kg. Further, the Anti-α effect entry in data set [6] (dose 5 mg/kg i.v.) and in data set [6] (dose 10 mg/kg i.v.) was “+++” each time.
With `CCCCN(CCCC)CCCOc1c(C)cc(C(=O)c2c(C)c(Br)c3ccccn23)cc1C` [Br/CH3/CH3/CH3/n-C4H9/3, 1-Bromo-2-methyl-3-[4-(3-di-n-butylaminopropyl)-oxy-3,5-dimethyl-benzoyl]-indolizine], in data set [4] (Canis lupus familiaris, iv), the inhibition in vivo at 10 mg/kg was greater than 50%. Also, the ED50 in the data set on ventricular fibrillation was less than 100 mg/kg. Besides, the Anti-α effect entry in data set [6] (dose 10 mg/kg i.v.) is “+++”.
For the compound `CCCCN(CCCC)CCCOc1ccc(C(=O)c2c(-c3ccc(Cl)cc3)c(Br)c3ccccn23)cc1Cl` [Br/Cl/H/drawing 50/n-C4H9/3], the LD0 in the data set on rats is listed as greater than 100 mg/kg. Besides, the LD50 in data set [2] was greater than 100 mg/kg.
Regarding `CCCCN(CCCC)CCCOc1ccc(C(=O)c2c(CC)cc3ccccn23)cc1` [Butoprozine, 2-ethyl-3-[4-(3-di-n-butylaminopropyl)-oxy-benzoyl]-indolizine, reference compound], the inhibition in vivo at 5 mg/kg in data set [4] (Canis lupus familiaris, iv) is less than 50%. Further, the LD50 in data set [1] was 1600 mg/kg; in [2], 22 mg/kg; in data set [3], 25 mg/kg. Moreover, in the data set on ventricular fibrillation, the ED50 was determined as 270 mg/kg. In [6] (dose 5 mg/kg i.v.), the Anti-α effect entry is reported as “+++”. The “Dose provoking ventricular arrhythmia (as low as)” value in the data set on dog is recorded as 50 mg/kg/day. This compound registered a Lethal dose with dog of 50 to 100 mg/kg/day. The change in vivo at 10 mg/kg in data set [7] (setting [9]) was 120%. The “Time required to decrease to 50% (duration of effect)” value in [7] (dose 10 mg/kg i.v.) stood at 4 min.
In data set [3], `CCCCc1c(C)c2ccccn2c1C(=O)c1ccc(OCCCN(CCC)CCC)c(Br)c1` [CH3/Br/H/n-C4H9/n-C3H7/3, 1-Methyl-2-n-butyl-3-[4-(3-di-n-propylaminopropyl)-oxy-3-bromo-benzoyl]-indolizine] gave an LD50 of 50 mg/kg.
In data set [4] (Canis lupus familiaris, iv, dose 0.5 mg/kg i.v.), `CCCCN(CCCC)CCCOc1ccc(C(=O)c2c(CC)c(Cl)c3ccccn23)cc1Cl` [Cl/Cl/H/C2H5/n-C4H9/3, 1-Chloro-2-ethyl-3-[4-(3-di-n-butylaminopropyl)-oxy-3-chloro-benzoyl]-indolizine] yielded an inhibition in vivo at 0.5 mg/kg of less than 50%. The compound further showed an LD50 in data set [2] of 50 mg/kg. In addition, the Anti-α effect result in data set [6] (dose 0.5 mg/kg i.v.) was “+++”. Moreover, the change in vivo at 1 mg/kg in [7] (Canis lupus familiaris, iv, dose 1 mg/kg i.v., read-out: Max. increase (blood-flow to the myocardium)) is 40%. For the same compound, the “Time required to decrease to 50% (duration of effect)” value in [7] (dose 1 mg/kg i.v.) amounted to 15 min.
In [4] (Canis lupus familiaris, iv), `CCCCc1c(Cl)c2ccccn2c1C(=O)c1ccc(OCCCN(CCCC)CCCC)cc1` [Cl/H/H/n-C4H9/n-C4H9/3, 1-Chloro-2-n-butyl-3-[4-(3-di-n-butylaminopropyl)-oxy-benzoyl]-indolizine] yielded an inhibition in vivo at 10 mg/kg greater than 50%. Also, in data set [2], the LD50 came to 50 mg/kg. Moreover, the Anti-α effect result in data set [6] (dose 10 mg/kg i.v.) was “+++”. Moreover, the change in vivo at 10 mg/kg in [7] (setting [9]) is 60%. In addition, in data set [7] (dose 10 mg/kg i.v.), the “Time required to decrease to 50% (duration of effect)” value came out at 30 min.
In the case of `CCCCc1cc2ccccn2c1C(=O)c1ccc(OCCCN(CCCC)CCCC)c(Br)c1` [H/Br/H/n-C4H9/n-C4H9/3, 2-n-Butyl-3-[4-(3-di-n-butylaminopropyl)-oxy-3-bromo-benzoyl]-indolizine], the inhibition in vivo at 5 mg/kg in data set [4] (Canis lupus familiaris, iv) was greater than 50%. Further, in [4], the Anti-β effect result is on record as “+++”. In data set [2], this compound registered an LD50 of 60 mg/kg. The ED50 in the data set on ventricular fibrillation turned out to be 170 mg/kg. Also, the Anti-α effect entry in data set [6] (dose 5 mg/kg i.v.) and in data set [6] (dose 10 mg/kg i.v.) was “+++” throughout. The change in vivo at 5 mg/kg in data set [7] (Canis lupus familiaris, iv, dose 5 mg/kg i.v., read-out: Max. increase (blood-flow to the myocardium)) is 70%. Besides, the “Time required to decrease to 50% (duration of effect)” value in data set [7] (dose 5 mg/kg i.v.) came to 60 min.
As for `CCCCc1cc2ccccn2c1C(=O)c1ccc(OCCCN(CCC)CCC)c(C)c1` [H/CH3/H/n-C4H9/n-C3H7/3, 2-n-Butyl-3-[4-(3-di-n-propylaminopropyl)-oxy-3-methyl-benzoyl]-indolizine], the inhibition in vivo at 5 mg/kg in data set [4] (Canis lupus familiaris, iv) is less than 50%; in data set [6] (Canis lupus familiaris, iv, dose 5 mg/kg i.v.), greater than 50%. Also, the LD50 in data set [3] is greater than 50 mg/kg.
For the compound `CCCCN(CCCC)CCCOc1c(Cl)cc(C(=O)c2c(C(C)C)cc3ccccn23)cc1Cl` [H/Cl/Cl/iso-C3H7/n-C4H9/3, 2-Isopropyl-3-[4-(3-di-n-butylaminopropyl)-oxy-3,5-dichloro-benzoyl]-indolizine], the inhibition in vivo at 10 mg/kg was greater than 50% in data set [4] (Canis lupus familiaris, iv) and greater than 50% in data set [6] (Canis lupus familiaris, iv, dose 10 mg/kg i.v.). The compound further displayed a 50% lethal dose (LD50) in data set [2] greater than 100 mg/kg. Also, in data set [7] (setting [9]), the change in vivo at 10 mg/kg was 30%. Also, the “Time required to decrease to 50% (duration of effect)” value in [7] (dose 10 mg/kg i.v.) was 75 min.
Turning to `CCCCN(CCCC)CCCOc1c(C)cc(C(=O)c2c(CC)c(I)c3ccccn23)cc1C` [I/CH3/CH3/C2H5/n-C4H9/3, 1-Iodo-2-ethyl-3-[4-(3-di-n-butylaminopropyl)-oxy-3,5-dimethyl-benzoyl]-indolizine], in data set [4], the Anti-β effect entry was “+++”. In the data set on ventricular fibrillation, the ED50 was 100 mg/kg. In data set [6] (dose 10 mg/kg i.v.), the Anti-α effect result is “+++”.
For `OCCN(CCO)c1nc(N2CCCCC2)c2nc(N(CCO)CCO)nc(N3CCCCC3)c2n1` [dipyridamole], the “Consumption of oxygen by the myocardium” value in data set [8] is on record as “does not decrease the consumption of oxygen by the myocardium”.
